One molecule from PMC10687169, “Insights into the recognition mechanism in the UBR box of UBR4 for its specific substrates” (Communications Biology, 2023) can be followed below.

This test concerns the target T1, UBR4^UBR (UBR box of Human UBR4) (Homo sapiens, UniProt Q5T4S7).
T1 construct: UBR box residues 1660-1729 (Methods; Results b12 prints 1669-1729); N-terminal 10His-MBP tag kept for ITC, cut with TEV for crystals; E. coli BL21(DE3) RIL; three zinc ions; crystal 8J9R from YIFS-UBR4 (YIFS fused at N-terminus, LC3B tag removed by ATG4B)
The test can be described thus: ITC. Format: binding. The settings on record: pH 7.5, 200 mM NaCl, 25 °C; 0.225 mM protein, 4.5 mM peptide; 10His-MBP-tagged protein.

Where a SMILES comes first, the peptide text is derived from it.

T1 sequence (Q5T4S7 1660-1729): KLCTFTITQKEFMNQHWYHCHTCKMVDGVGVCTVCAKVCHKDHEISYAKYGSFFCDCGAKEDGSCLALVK

As for `CC[C@H](C)[C@H](NC(=O)[C@@H](N)CCCNC(=N)N)C(=O)N[C@@H](Cc1ccccc1)C(=O)N[C@@H](CO)C(=O)O` [RIFS] (H-RIFS-OH), the affinity, expressed as Kd, was 626 ± 29 µM.
